Assay [1] concerns Human umbilical vein endothelial cells (HUVEC). In words: PMN adhesion to TNF-activated endothelial monolayers (HUVEC). The format is cell-based. The following applies: InsP6 0.5 mM. The procedure: Human umbilical vein endothelial cells (HUVEC, Clonetics Corp., San Diego, Calif.) were grown to confluence with 2.2 cm diameter circles made on glass slides with a grease pencil as previously described (Spertini, O., et al., J. Immunol., 147:2565, 1991), and activated for 6-8 hours at […] with 200 U/ml of human recombinant TNFα (Biogen Res. Corp., Cambridge, Mass.). Human PMN (2×10^6) were allowed to adhere to these endothelial monolayers for 30 min at 4° C. under static (stationary platform; upper panel) and non-static (rotating platform, 64 r.p.m.; lower panel) conditions. To determine adhesion blocking activity, PMN were incubated in 5% FBS in RPMI 1640 alone or containing inositol (0.5 mM), InsP6 (0.5 mM), or anti-L-selectin monoclonal antibody LAM 1.3 (10 μg/ml), for 30 min or ice prior to their addition to activated endothelial monolayers. In some experimental wells, endothelial monolayers were incubated with anti E-selectin monoclonal antibody, H18/7, for 30 min prior to addition of PMN. After washing to remove unbound PMN, cultures were fixed in PBS containing 2.5% glutaraldehyde and adherent PMN were counted microscopically. The data represent the mean ±s.e.m. of three separate experiments. Unblocked PMN adhesion to activated endothelial monolayers under static and non-static conditions ranged from 1800 to 2400 cells/mm^2. […]

For assay [2] the following is noted: Ca^2+; read-out: Kd, calcium binding; cited from earlier work.

Structures are written as SMILES.

Regarding `O=P(O)(O)O[C@H]1[C@H](OP(=O)(O)O)[C@@H](OP(=O)(O)O)[C@H](OP(=O)(O)O)[C@@H](OP(=O)(O)O)[C@H]1OP(=O)(O)O` [InsP6, myo-inositol hexakisphosphate], the “PMN adhesion to TNF-activated endothelial cells, non-static” value in assay [1] (non-static conditions (rotation-induced shear stress, 64 r.p.m.)) is reported as “blocked the adhesion of PMN”. Besides, in assay [1] (static conditions), the “PMN adhesion to TNF-activated endothelial cells, static” value is reported as “little or no effect”. Also, the Kd in assay [2] was ~5 µM.

One may read the Kd as the constant that tells how readily two partners part at equilibrium.

The values are drawn from patent publication US5827837A, “Polyanion anti-inflammatory agents” (priority 1996, dated 1998).
